Data reported in ChEMBL document CHEMBL1146322, “Synthesis and biological evaluation of some 5-ethoxycarbonyl-6-isopropylamino-4-(substitutedphenyl)aminopyrimidines as potent analgesic and anti-inflammatory agents” (Bioorg Med Chem Lett, 2007).

How the values were obtained:
Rattus norvegicus [1] = experiment: Antiinflammatory activity in rat at 50 mg/kg, po; type: functional
Mus musculus = experiment: Analgesic activity in Albino mouse assessed as inhibition of acetic acid-induced writhing at 50 mg/kg, po; type: functional
Rattus norvegicus [2] = species on record: Rattus norvegicus; experiment: Toxicity in rat assessed as ulcerogenic potential; type: organism-based; conditions: in vivo

Compound	inhibition in vivo at 50 mg/kg (Rattus norvegicus [1]) [%]	inhibition in vivo at 50 mg/kg (Mus musculus) [%]	UI (Rattus norvegicus [2])
CCOC(=O)c1c(Nc2ccc([N+](=O)[O-])cc2)ncnc1NC(C)C	84.6	77.4	–
CCOC(=O)c1c(Nc2ccc(C)cc2)ncnc1NC(C)C	89.7	72	0.29
CCOC(=O)c1c(Nc2ccc(S(N)(=O)=O)cc2)ncnc1NC(C)C	87.7	72.6	0.241
CCOC(=O)c1c(Nc2ccc(Cl)cc2)ncnc1NC(C)C	30.9	70.2	–
CCOC(=O)c1c(Nc2ccc(OC)cc2)ncnc1NC(C)C	62.7	85.1	–
CCOC(=O)c1c(NC(C)C)ncnc1Oc1ccccc1	55.5	70.2	–
Cc1ccc(-c2cc(C(F)(F)F)nn2-c2ccc(S(N)(=O)=O)cc2)cc1 [CELECOXIB]	82.1	–	0.104
O=C([O-])Cc1ccccc1Nc1c(Cl)cccc1Cl.[Na+] [DICLOFENAC SODIUM]	–	78	0.805
